Results reported in BigSolDB 2.1.

Cc1cc(=O)[nH]c(=S)[nH]1
solubility (mole fraction)
Conditions | 278.15 K | 283.15 K | 288.15 K | 293.15 K | 298.15 K | 303.15 K | 308.15 K | 313.15 K | 318.15 K | 323.15 K
in DMF | 0.0117 | 0.0144 | 0.0174 | 0.0207 | 0.0252 | 0.0294 | 0.0346 | 0.0396 | 0.0463 | 0.0538
in DMSO | – | – | – | 0.0379 | 0.0432 | 0.0491 | 0.0549 | 0.0619 | 0.0692 | 0.0773
in NMP | 0.013 | 0.0155 | 0.0181 | 0.0212 | 0.0246 | 0.0288 | 0.0334 | 0.0391 | 0.0454 | 0.051
in water | 2.53e-05 | 3.23e-05 | 4.15e-05 | 5.26e-05 | 6.68e-05 | 8.48e-05 | 0.000106 | 0.000129 | 0.000156 | 0.000187
